In PubChem BioAssay AID248 (DTP/NCI, 2004):
Values joined by “and” are separate entries in the source; they are usually repeats but may differ in a detail not shown here. Equal values may be shown once. Inconclusive results and toxic doses are left out. Peptide text beside a SMILES is read from it. * marks the point of attachment. Trt = c1ccc(C(c2ccccc2)(c2ccccc2)*)cc1

Tested on: L1210 leukemia ip in BDF1 mice, survival T/C
Assay: NCI In Vivo Anticancer Drug Screen. Data for tumor model L1210 Leukemia (intraperitoneal) in B6D2F1 (BDF1) mice
Details: endpoint: mean survival time, higher = longer survival
Method in brief: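 Each compound was tested against a transplantable tumor grown in mice. The endpoint was survival, with treated animals benchmarked against vehicle controls as a simple ratio.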

[1] = dose: 100.0 mg/kg/injection, schedule: Q04DX003 (ip), vehicle: saline
[2] = dose: 200.0 mg/kg/injection, schedule: Q04DX003 (ip), vehicle: saline
[3] = dose: 50.0 mg/kg/injection, schedule: Q01DX009 (ip), vehicle: Klucel (hydroxypropylcellulose) (HPC)
[4] = dose: 100.0 mg/kg/injection, schedule: Q01DX009 (ip), vehicle: Klucel (hydroxypropylcellulose) (HPC)
[5] = dose: 300.0 mg/kg/injection, schedule: Q01DX001 (ip), vehicle: carboxymethylcellulose (CMC)
[6] = dose: 400.0 mg/kg/injection, schedule: Q04DX003 (ip), vehicle: saline
[7] = dose: 50.0 mg/kg/injection, schedule: Q01DX009 (ip), vehicle: saline
[8] = dose: 100.0 mg/kg/injection, schedule: Q01DX009 (ip), vehicle: saline
[9] = dose: 25.0 mg/kg/injection, schedule: Q01DX009 (ip), vehicle: Klucel (hydroxypropylcellulose) (HPC)
[10] = dose: 100.0 mg/kg/injection, schedule: Q04DX003 (ip), vehicle: Klucel (hydroxypropylcellulose) (HPC)
[11] = dose: 200.0 mg/kg/injection, schedule: Q04DX003 (ip), vehicle: Klucel (hydroxypropylcellulose) (HPC)
[12] = dose: 400.0 mg/kg/injection, schedule: Q04DX003 (ip), vehicle: Klucel (hydroxypropylcellulose) (HPC)
[13] = dose: 100.0 mg/kg/injection, schedule: Q01DX001 (ip), vehicle: saline
[14] = dose: 15.0 mg/kg/injection, schedule: Q01DX Z (ip), vehicle: methylcellulose (MC)
[15] = dose: 200.0 mg/kg/injection, schedule: Q01DX001 (ip), vehicle: carboxymethylcellulose (CMC)
[16] = dose: 400.0 mg/kg/injection, schedule: Q01DX009 (ip), vehicle: saline

## Cn1cnc2c([N+](C)(C)C)ncnc21
dose: 11.0 mg/kg/injection, schedule: Q04DX003 (ip), vehicle: saline
  T/C: 100 % of control
dose: 22.0 mg/kg/injection, schedule: Q04DX003 (ip), vehicle: saline
  T/C: 104 % of control
dose: 44.0 mg/kg/injection, schedule: Q04DX003 (ip), vehicle: saline
  T/C: 98 % of control
dose: 90.0 mg/kg/injection, schedule: Q04DX003 (ip), vehicle: saline
  T/C: 100 % of control
[1]
  T/C: 95 % of control and 101 % of control
[2]
  T/C: 104 % of control

## O=C(/C=C/c1ccccc1)Nc1cc([N+](=O)[O-])ccc1O
[3]
  T/C: 97 % of control
[4]
  T/C: 94 % of control and 87 % of control
dose: 200.0 mg/kg/injection, schedule: Q01DX009 (ip), vehicle: Klucel (hydroxypropylcellulose) (HPC)
  T/C: 94 % of control and 97 % of control
dose: 400.0 mg/kg/injection, schedule: Q01DX009 (ip), vehicle: Klucel (hydroxypropylcellulose) (HPC)
  T/C: 87 % of control

## COc1cc(N(CCCl)CCCl)c(OC)cc1C=Nc1ccc(-c2csc(Cc3ccccc3)n2)c(Cl)c1
dose: 12.5 mg/kg/injection, schedule: Q01DX001 (ip), vehicle: carboxymethylcellulose (CMC)
  T/C: 115 % of control
dose: 25.0 mg/kg/injection, schedule: Q01DX001 (ip), vehicle: carboxymethylcellulose (CMC)
  T/C: 105 % of control
dose: 50.0 mg/kg/injection, schedule: Q01DX001 (ip), vehicle: carboxymethylcellulose (CMC)
  T/C: 108 % of control
dose: 88.0 mg/kg/injection, schedule: Q01DX001 (ip), vehicle: carboxymethylcellulose (CMC)
  T/C: 115 % of control
dose: 88.0 mg/kg/injection, schedule: Q01DX009 (ip), vehicle: carboxymethylcellulose (CMC)
  T/C: 110 % of control
dose: 133.0 mg/kg/injection, schedule: Q01DX009 (ip), vehicle: carboxymethylcellulose (CMC)
  T/C: 94 % of control
dose: 150.0 mg/kg/injection, schedule: Q01DX001 (ip), vehicle: carboxymethylcellulose (CMC)
  T/C: 153 % of control
[5]
  T/C: 176 % of control and 182 % of control

## Cc1ccc2ccccc2c1N(CC(=O)O)S(=O)(=O)c1ccccc1 (tested in a mixture with another compound)
dose: 100.0 mg/kg/injection, schedule: Q04DX003 (ip), vehicle: saline sonified
  T/C: 94 % of control
dose: 200.0 mg/kg/injection, schedule: Q04DX003 (ip), vehicle: saline sonified
  T/C: 94 % of control
dose: 400.0 mg/kg/injection, schedule: Q04DX003 (ip), vehicle: saline sonified
  T/C: 112 % of control

## Cc1nc(N)[nH]c(=O)c1CC(C)O (stereo not drawn)
[1]
  T/C: 92 % of control
[2]
  T/C: 100 % of control
[6]
  T/C: 92 % of control

## c1ccc2c(c1)C[N+](=C1CCCCC1)Cc1ccccc1-2
dose: 25.0 mg/kg/injection, schedule: Q01DX009 (ip), vehicle: saline
  T/C: 103 % of control
[7]
  T/C: 106 % of control
[8]
  T/C: 101 % of control
[1]
  T/C: 99 % of control

## [O-][n+]1ccc(CC(O)(C(F)(F)F)C(F)(F)F)cc1
[9]
  T/C: 93 % of control
[3]
  T/C: 92 % of control
[4]
  T/C: 97 % of control and 104 % of control
[10]
  T/C: 103 % of control
[11]
  T/C: 102 % of control
[12]
  T/C: 96 % of control

## CCC[CH2][Sn]1([CH2]CCC)[O]C(=O)c2cccc([N+](=O)[O-])c2C(=O)[O]1
[13]
  T/C: 117 % of control

## O=C(CNNc1ccc([N+](=O)[O-])cn1)Nc1ccc(S(=O)(=O)c2ccc(NC(=O)CNNc3ccc([N+](=O)[O-])cn3)cc2)cc1
dose: 10.0 mg/kg/injection, schedule: Q01DX Z (ip), vehicle: methylcellulose (MC)
  T/C: 91 % of control
[14]
  T/C: 95 % of control
dose: 22.5 mg/kg/injection, schedule: Q01DX Z (ip), vehicle: methylcellulose (MC)
  T/C: 94 % of control

## CC(OC(=O)c1ccccc1O)c1ccccc1 (stereo not drawn)
[1]
  T/C: 96 % of control
[2]
  T/C: 96 % of control
[6]
  T/C: 100 % of control

## COC(=O)C1OC1c1ccc2c(c1)OCO2 (stereo not drawn)
dose: 88.8 mg/kg/injection, schedule: Q01DX001 (ip), vehicle: carboxymethylcellulose (CMC)
  T/C: 97 % of control and 98 % of control
dose: 133.4 mg/kg/injection, schedule: Q01DX001 (ip), vehicle: carboxymethylcellulose (CMC)
  T/C: 95 % of control and 106 % of control
[15]
  T/C: 95 % of control and 97 % of control
[5]
  T/C: 93 % of control and 101 % of control

## NC(N)=N/N=C/C(O)CO (stereo not drawn)
[14]
  T/C: 104 % of control
dose: 30.0 mg/kg/injection, schedule: Q01DX Z (ip), vehicle: methylcellulose (MC)
  T/C: 113 % of control
dose: 60.0 mg/kg/injection, schedule: Q01DX Z (oral), vehicle: methylcellulose (MC)
  T/C: 117 % of control
dose: 240.0 mg/kg/injection, schedule: Q01DX Z (oral), vehicle: methylcellulose (MC)
  T/C: 93 % of control

## CC(N)CC(N)CC(=O)O (stereo not drawn)
[13]
  T/C: 96 % of control and 98 % of control
dose: 200.0 mg/kg/injection, schedule: Q01DX001 (ip), vehicle: saline
  T/C: 98 % of control and 104 % of control
dose: 400.0 mg/kg/injection, schedule: Q01DX001 (ip), vehicle: saline
  T/C: 91 % of control and 102 % of control

## CN(C/C=C/CN(C)P(=S)(N1CC1)N1CC1)P(=S)(N1CC1)N1CC1
dose: 100.0 mg/kg/injection, schedule: Q01DX001 (ip), vehicle: carboxymethylcellulose (CMC)
  T/C: 96 % of control
[15]
  T/C: 93 % of control
dose: 400.0 mg/kg/injection, schedule: Q01DX001 (ip), vehicle: carboxymethylcellulose (CMC)
  T/C: 109 % of control

## Cc1cc2ccc(OC(=O)c3ccc(N=C(N)N)cc3)cc2oc1=O
dose: 100.0 mg/kg/injection, schedule: Q04DX003 (ip), vehicle: saline with Tween-80
  T/C: 97 % of control
dose: 200.0 mg/kg/injection, schedule: Q04DX003 (ip), vehicle: saline with Tween-80
  T/C: 95 % of control
dose: 400.0 mg/kg/injection, schedule: Q04DX003 (ip), vehicle: saline with Tween-80
  T/C: 98 % of control

## O=C(O)c1ccc(Br)cc1
[1]
  T/C: 89 % of control
[2]
  T/C: 86 % of control

## COc1ccc(OC)c([N+](=O)[O-])c1C=O
dose: 100.0 mg/kg/injection, schedule: Q01DX001 (ip), vehicle: other
  T/C: 92 % of control
dose: 200.0 mg/kg/injection, schedule: Q01DX001 (ip), vehicle: other
  T/C: 90 % of control
dose: 400.0 mg/kg/injection, schedule: Q01DX001 (ip), vehicle: other
  T/C: 90 % of control

## COc1ccc(NC(=O)Nc2cc(Cl)ccc2OC)c(Cl)c1
[8]
  T/C: 100 % of control
[1]
  T/C: 104 % of control
dose: 200.0 mg/kg/injection, schedule: Q01DX009 (ip), vehicle: saline
  T/C: 93 % of control
[2]
  T/C: 98 % of control
[16]
  T/C: 88 % of control
[6]
  T/C: 101 % of control

## Cc1c2c(cc3c1[nH]c1ccccc13)C(C(F)(F)F)=NCC2
dose: 16.0 mg/kg/injection, schedule: Q01DX005 (ip), vehicle: saline
  T/C: 97 % of control
dose: 32.0 mg/kg/injection, schedule: Q01DX005 (ip), vehicle: saline
  T/C: 100 % of control
dose: 64.0 mg/kg/injection, schedule: Q01DX005 (ip), vehicle: saline
  T/C: 100 % of control
dose: 128.0 mg/kg/injection, schedule: Q01DX005 (ip), vehicle: saline
  T/C: 101 % of control

## CC1(C)OC2OC(COS(C)(=O)=O)C(O)C2O1 (stereo not drawn)
dose: 12.5 mg/kg/injection, schedule: Q01DX009 (ip), vehicle: Klucel (hydroxypropylcellulose) (HPC)
  T/C: 100 % of control
[9]
  T/C: 105 % of control
[3]
  T/C: 105 % of control
dose: 50.0 mg/kg/injection, schedule: Q04DX003 (ip), vehicle: Klucel (hydroxypropylcellulose) (HPC)
  T/C: 92 % of control
[4]
  T/C: 103 % of control
[10]
  T/C: 100 % of control
[11]
  T/C: 91 % of control
[12]
  T/C: 102 % of control

## COC(=O)C(NC(=O)C(N)CSC(c1ccccc1)(c1ccccc1)c1ccccc1)C(C)C (stereo not drawn) (H-Cys(Trt)-Val-OMe; configuration not given here)
[7]
  T/C: 104 % of control and 118 % of control
[8]
  T/C: 109 % of control
[16]
  T/C: 104 % of control

## C=CCc1ccc(OCCOCCNC2C(C)CCCC2(C)C)c(OC)c1 (stereo not drawn)
dose: 5.0 mg/kg/injection, schedule: Q01DX009 (ip), vehicle: Klucel (hydroxypropylcellulose) (HPC)
  T/C: 101 % of control
dose: 5.0 mg/kg/injection, schedule: Q04DX003 (ip), vehicle: Klucel (hydroxypropylcellulose) (HPC)
  T/C: 96 % of control
dose: 10.0 mg/kg/injection, schedule: Q01DX009 (ip), vehicle: Klucel (hydroxypropylcellulose) (HPC)
  T/C: 100 % of control
dose: 10.0 mg/kg/injection, schedule: Q04DX003 (ip), vehicle: Klucel (hydroxypropylcellulose) (HPC)
  T/C: 90 % of control
dose: 20.0 mg/kg/injection, schedule: Q01DX009 (ip), vehicle: Klucel (hydroxypropylcellulose) (HPC)
  T/C: 97 % of control
dose: 20.0 mg/kg/injection, schedule: Q04DX003 (ip), vehicle: Klucel (hydroxypropylcellulose) (HPC)
  T/C: 96 % of control

## CC1CC(=O)NC1=O (stereo not drawn)
[1]
  T/C: 115 % of control
[2]
  T/C: 116 % of control
[6]
  T/C: 112 % of control
